Data published in PMC2151574 (The Journal of General Physiology, 2006).
Several values for one entry are separate records, joined by “and”; a condition that tells them apart may be missing. Identical values can stand only once. Entries after “also recorded” stand apart in the source; their conditions may differ. Like-named read-outs stand apart in the source and are kept apart here. Each block holds one molecule with its values, some of them ahead of it. Where a SMILES comes first, the peptide text is derived from it.

How the values were obtained:
[1] = target: T1, wild-type BK channel (mslo) (Mus musculus, UniProt Q08460); assay: Single channel recordings, wild-type BK channel; assay type: cell-based; conditions: n = 5
BK channels [2] = conditions: cited from earlier work; for time dependence of block of BK currents: internal
[3] = target: T2, E321N, E324N mutant BK channel (Mus musculus, UniProt Q08460, E386N/E389N); assay type: cell-based; conditions: for decrease of apparent affinity of block in E321N, E324N mutant vs wild type: macroscopic currents
[4] = target: S6/2-KcsA BK channel construct (Mus musculus, UniProt Q08460, A378T/A381G/E386A/E389T/I387L/I388A/I391F/L377I/L390W/M379S/P385A/S382L/V384T/Y383V); assay type: cell-based
[5] = target: T2, E321N, E324N mutant BK channel; assay: Single channel recordings, E321N, E324N mutant; assay type: cell-based
[6] = tested on: S6/2-KcsA BK channel construct; assay type: cell-based, mouse
[7] = target: wild-type BK channel (mslo, mbr5) (Mus musculus, UniProt Q08460); assay: Macroscopic block of wild-type BK currents, inside-out patch clamp; assay type: cell-based; conditions: for time constant of block, τfast (double exponential fit) / time constant of block, τslow (double exponential fit): inside-out patch, 22°C, holding potential −80 mV
[8] = target: T1, wild-type BK channel (mslo); assay: Competition between TBA and EBP on macroscopic BK currents; assay type: cell-based
Shaker channels = conditions: ref Murrell-Lagnado and Aldrich, 1993b; cited from earlier work
BK channels [9] = conditions: cited from earlier work
[10] = target: T1, wild-type BK channel (mslo); assay: State dependence of EBP block in High and Low Ca2+; assay type: cell-based; conditions: 3 μM EBP
[11] = target: T1, wild-type BK channel (mslo); assay: Deactivation; assay type: cell-based
[12] = tested on: other K^+ channels and CNG channels; conditions: most other K^+ channels; cited from earlier work
[13] = tested on: Shaker channel (ShB Δ6-46); assay: Macroscopic block of Shaker currents, inside-out patch clamp; assay type: cell-based; conditions: identical conditions, holding potential −120 mV
[14] = EBP at around half block concentration, 120 mV
[15] = 500 μM TBA on top of 3 μM EBP, compared with 3 μM EBP alone
[16] = when roughly half of the channels are blocked

Sequence of wild-type BK channel (mslo, mbr5) (Q08460 66-1209 limits assumed): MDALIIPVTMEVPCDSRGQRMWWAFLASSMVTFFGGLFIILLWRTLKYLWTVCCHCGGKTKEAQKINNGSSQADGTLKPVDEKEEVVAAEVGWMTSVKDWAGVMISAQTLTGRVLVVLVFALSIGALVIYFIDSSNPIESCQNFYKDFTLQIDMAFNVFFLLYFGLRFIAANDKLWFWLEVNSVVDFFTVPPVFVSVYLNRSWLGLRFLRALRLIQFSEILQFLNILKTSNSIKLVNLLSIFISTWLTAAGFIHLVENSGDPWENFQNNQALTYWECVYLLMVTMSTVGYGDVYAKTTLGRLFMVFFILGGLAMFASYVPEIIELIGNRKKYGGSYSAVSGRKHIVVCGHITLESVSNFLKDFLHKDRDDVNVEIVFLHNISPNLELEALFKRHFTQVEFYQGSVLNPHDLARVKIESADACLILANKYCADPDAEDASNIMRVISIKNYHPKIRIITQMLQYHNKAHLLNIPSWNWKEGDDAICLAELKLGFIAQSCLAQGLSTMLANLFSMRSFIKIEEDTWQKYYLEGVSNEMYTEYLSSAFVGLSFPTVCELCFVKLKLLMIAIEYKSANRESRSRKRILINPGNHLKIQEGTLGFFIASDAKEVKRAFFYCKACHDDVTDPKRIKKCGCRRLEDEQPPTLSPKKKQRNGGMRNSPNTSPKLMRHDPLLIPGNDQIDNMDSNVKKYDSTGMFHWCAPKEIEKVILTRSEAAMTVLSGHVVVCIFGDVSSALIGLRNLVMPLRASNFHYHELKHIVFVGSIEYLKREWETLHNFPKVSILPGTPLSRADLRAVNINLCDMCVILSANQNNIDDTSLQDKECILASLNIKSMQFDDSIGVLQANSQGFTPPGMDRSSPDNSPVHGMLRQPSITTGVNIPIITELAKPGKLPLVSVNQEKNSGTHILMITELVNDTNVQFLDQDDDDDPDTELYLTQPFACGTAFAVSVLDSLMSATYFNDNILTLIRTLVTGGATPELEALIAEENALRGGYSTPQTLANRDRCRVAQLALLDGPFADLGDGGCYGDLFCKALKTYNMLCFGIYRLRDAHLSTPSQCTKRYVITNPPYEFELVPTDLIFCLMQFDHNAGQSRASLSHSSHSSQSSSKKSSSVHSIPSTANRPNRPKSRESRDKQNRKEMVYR
T1 sequence (Q08460 66-1209 limits assumed): as above
Sequence of S6/2-KcsA BK channel construct (Mus musculus, UniProt Q08460, A378T/A381G/E386A/E389T/I387L/I388A/I391F/L377I/L390W/M379S/P385A/S382L/V384T/Y383V) (Q08460 28-1196 isoform Q08460-2 with the stated changes): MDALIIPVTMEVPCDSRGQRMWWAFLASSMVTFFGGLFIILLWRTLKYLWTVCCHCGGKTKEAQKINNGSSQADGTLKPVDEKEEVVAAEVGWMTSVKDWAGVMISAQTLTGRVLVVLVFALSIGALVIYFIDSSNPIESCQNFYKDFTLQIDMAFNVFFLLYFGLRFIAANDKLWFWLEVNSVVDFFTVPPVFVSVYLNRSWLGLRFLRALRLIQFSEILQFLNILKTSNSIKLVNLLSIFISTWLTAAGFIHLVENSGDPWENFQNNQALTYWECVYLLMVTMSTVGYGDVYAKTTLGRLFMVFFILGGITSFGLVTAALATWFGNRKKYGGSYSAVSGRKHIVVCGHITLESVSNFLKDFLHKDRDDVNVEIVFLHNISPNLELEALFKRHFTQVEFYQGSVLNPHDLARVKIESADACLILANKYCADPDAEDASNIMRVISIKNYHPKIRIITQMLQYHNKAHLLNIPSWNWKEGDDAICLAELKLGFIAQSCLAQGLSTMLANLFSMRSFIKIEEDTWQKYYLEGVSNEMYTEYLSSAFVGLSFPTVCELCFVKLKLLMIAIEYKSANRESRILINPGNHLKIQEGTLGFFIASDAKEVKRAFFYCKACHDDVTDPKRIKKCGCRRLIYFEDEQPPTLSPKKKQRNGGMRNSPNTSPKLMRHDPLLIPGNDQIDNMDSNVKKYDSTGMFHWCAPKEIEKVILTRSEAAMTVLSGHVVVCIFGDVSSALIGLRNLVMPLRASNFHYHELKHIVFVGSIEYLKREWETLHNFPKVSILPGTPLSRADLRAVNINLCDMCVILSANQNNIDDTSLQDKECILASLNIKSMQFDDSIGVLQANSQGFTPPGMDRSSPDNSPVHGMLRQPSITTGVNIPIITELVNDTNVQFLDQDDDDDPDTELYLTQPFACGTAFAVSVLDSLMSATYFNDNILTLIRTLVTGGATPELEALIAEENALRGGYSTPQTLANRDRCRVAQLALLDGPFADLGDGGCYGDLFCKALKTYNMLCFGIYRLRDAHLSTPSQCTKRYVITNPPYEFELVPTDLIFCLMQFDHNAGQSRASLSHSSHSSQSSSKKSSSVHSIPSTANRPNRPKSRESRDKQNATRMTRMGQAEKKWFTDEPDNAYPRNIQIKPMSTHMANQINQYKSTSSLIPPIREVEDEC
T2 sequence (Q08460 66-1209 E386N/E389N limits assumed): as the sequence (Q08460 66-1209 limits assumed) above, with E321N, E324N counted along it

association rate ([1]; 15 μM C10, mean ± SD): 9.0 ± 1.6 ms^−1 | dissociation rate of block (mean shut dwell time) ([1]; 120 mV, mean ± SD): 6.4 ± 0.5 ms^−1 | Hill coefficient n (C10) ([3]; E321N, E324N mutant, 100 mV, eight patches): 1.01 | decrease of apparent affinity of block in E321N, E324N mutant vs wild type [3]: ~2.5 fold | affinity of C10 vs TBA, S6/2-KcsA [4]: lower affinity than TBA | decrease of apparent affinity of C10 in S6/2-KcsA vs wild type [4]: almost two orders of magnitude | block of macroscopic S6/2-KcsA currents by C10 ([4]; 1 mM C10): about half the macroscopic currents | Hill coefficient n (C10) ([4]; S6/2-KcsA, 100 mV, five patches): 0.95 | association rate ([5]; E321N, E324N mutant, 40 μM C10, mean ± SD, n = 5): 12.5 ± 1.1 ms^−1 | dissociation rate of block (mean shut dwell time) ([5]; E321N, E324N mutant, 120 mV, mean ± SD, n = 5): 7.8 ± 0.6 ms^−1 | Hill coefficient n (C10) ([7]; wild type, 100 mV, six patches): 0.97 | affinity of C10 relative to that of TBA ([7]; wild-type BK channels): ~30 times
Molecule: CCCCCCCCCC[N+](CC)(CC)CC [C10, Decyltriethylammonium]
time dependence of block of BK currents (BK channels [2]; ref Li and Aldrich, 2004): without apparent time dependence | block events in single S6/2-KcsA channels ([6]; 1 mM C10): too fast to resolve

Molecule: CSCC[C@H](NC(C)=O)C(=O)N[C@@H](C)C(=O)N[C@@H](C)C(=O)N[C@H](C(=O)N[C@@H](C)C(=O)NCC(=O)N[C@@H](CC(C)C)C(=O)N[C@@H](Cc1ccc(O)cc1)C(=O)NCC(=O)N[C@@H](CC(C)C)C(=O)NCC(=O)N[C@@H](CCCCN)C(=O)N[C@@H](CCCCN)C(=O)N[C@@H](CCCNC(=N)N)C(=O)N[C@@H](CCC(N)=O)C(=O)N[C@@H](Cc1c[nH]cn1)C(=O)N[C@@H](CCCNC(=N)N)C(=O)N[C@@H](CCCCN)C(=O)N[C@@H](CCCCN)C(=O)N[C@@H](CCC(N)=O)C(N)=O)C(C)C [EBP] (Ac-MAAVAGLYGLGKKRQHRKKQ-NH2)
time constant of block, τ ([8]; 3 μM EBP alone): 2.8 ms | time constant of block, τ ([8]; 3 μM EBP plus 500 μM TBA): 5.6 ms | competition of TBA and EBP binding ([8]; 3 μM EBP, 500 μM TBA, positive potentials): mutually exclusive | block of E321N, E324N currents by EBP ([3]; 100 μM EBP, 120 mV): < 60% | decrease of apparent affinity of EBP block in double mutant vs wild type ([3]; 120 mV, from fitted dose responses): more than two orders of magnitude | Hill coefficient n (EBP) ([3]; E321N, E324N mutant, 120 mV, 11 patches): 0.72 | time constant of dominating component of block [3, 14]: a few milliseconds | time constant of very small component of block [3, 14]: hundreds of milliseconds | block of S6/2-KcsA current by EBP ([4]; 100 μM EBP, 120 mV, mean ± SD, n = 5): 23.0 ± 0.5% and ~20% | apparent affinity of EBP for S6/2-KcsA vs E321N, E324N double mutant ([4]; 120 mV): about threefold lower | apparent affinity of EBP for S6/2-KcsA vs wild-type BK ([4]; 120 mV): more than three orders of magnitude lower | duration of block events, single E321N, E324N channel ([5]; 100 μM EBP, 80 mV): mainly short block events lasting a few milliseconds | block events in single S6/2-KcsA channels ([6]; 100 μM EBP, 120 mV): fails to result in resolvable block events | dissociation rate of EBP in S6/2-KcsA channels vs TBA ([6]; 100 μM each): even faster than that of TBA | affinity for Shaker channels vs native ShBP (Shaker channels): much higher affinity for Shaker channels | association rate for Shaker channels vs native ShBP (Shaker channels): significantly higher association rate for Shaker channels than native ShBP | rising phase of BK currents (activation) vs control ([7]; 1 μM EBP, 120 mV): largely unchanged compared with control | time constant of block, τ (single exponential fit) ([7]; 1 μM EBP, 120 mV, macroscopic): 17.6 ms | fraction of remaining current (I/Io), voltage dependence ([7]; 1 μM EBP, end of 60-ms pulses, n = 6): decreases with increased membrane potentials | block of wild-type BK currents ([7]; 3 μM EBP): nearly complete block | single channel openings at steady-state block ([7]; 3 μM EBP): single channel openings to the full current level are clearly evident | time constant of block, τ (single exponential fit) ([7]; 3 μM EBP, 120 mV, macroscopic): 4.5 ms | time constant of block, τ (single exponential fit) ([7]; 10 μM EBP, 120 mV, macroscopic): 1.1 ms | 1/τ of block, concentration dependence ([7]; 1, 3 and 10 μM EBP, positive voltages (≥40 mV), n = 6): linearly dependent on the concentration of EBP | time constant of the single exponential decay ([7]; low concentration of EBP blocking roughly half of the channels (unpublished data)): ~100 ms | association rate constant (Kon), voltage dependence ([7]; slope of 1/τ vs EBP concentration): larger depolarizations resulting in higher association rate constants | Hill coefficient n (EBP) ([7]; wild type, 120 mV, 500 ms pulses, 5 patches): 1.16 | type of block events, single BK channels (BK channels [9]; near 0 mV, ref Toro et al., 1994): mostly short block events; also recorded: predominantly short block events | affinity for BK channels (BK channels [9]; single channel, ref Toro et al., 1994): higher affinity for BK channels than ShBP | fraction of preblock, Po ∼0 ([10]; High Ca^2+, lower end of range −80 to 80 mV): ~0 | relative amplitude of the test current, change with prepulse ([10]; Low Ca^2+, −80 to 80 mV, Po ∼0): doesn't change much | state dependence of block ([10]; High and Low Ca^2+ solutions): much more favored in an open configuration than a closed one; also recorded: peptide binding is much more favored in an opened BK channel | deactivation of BK channels ([11]; 3 μM EBP, tail current compared with control): slowed compared with the control trace; also recorded: Deactivation of BK channels is slowed by EBP | normalized tail current time constant, τslow (double exponential fit) ([11]; 3 μM EBP, −160 mV after depolarization to 120 mV): 7.3 ms | normalized tail current time constant, τfast (double exponential fit) ([11]; 3 μM EBP, −160 mV after depolarization to 120 mV (control τ = 0.25 ms)): 0.37 ms | tail current time constant, slower component ([11]; EBP, negative potentials, relatively voltage insensitive): ~10 ms | tail current time constant, fast component ([11]; EBP, −60 mV): ~2 ms | tail current time constant, fast component ([11]; EBP, −160 mV): ~0.3 ms | off rate at negative potentials ([11]; from modeling tail currents with a C↔O↔B model): ~100 s⁻¹

reduction of peak current by added TBA [8, 15]: about half | slowing of time-dependent EBP block by added TBA [8, 15]: about twofold | block of mutant currents by TBA ([3]; 20 mM TBA, E321N, E324N mutant): ~100% | Hill coefficient n (TBA) ([3]; E321N, E324N mutant, 120 mV, nine patches): 0.89 | decrease of apparent affinity of block in E321N, E324N mutant vs wild type [3]: ~2.5 fold | affinity of TBA in S6/2-KcsA vs wild-type BK [4]: almost exactly the same affinity | block of macroscopic S6/2-KcsA currents by TBA ([4]; 100 μM TBA, 120 mV): ~20% | block of mutant currents by TBA ([4]; 20 mM TBA, S6/2-KcsA): ~100% | Hill coefficient n (TBA) ([4]; S6/2-KcsA, 120 mV, five patches): 0.97 | single channel block in mutant vs wild type ([5]; 1 mM TBA in E321N, E324N mutant vs 0.4 mM in wild type, 120 mV): qualitatively very similar | Hill coefficient n (TBA) ([7]; wild type, 120 mV, five patches): 0.87
Molecule: CCCC[N+](CCCC)(CCCC)CCCC [TBA, Tetrabutylammonium]
inhibition of BK current at steady state (BK channels [2]; 500 μM TBA, positive potentials, ref Li and Aldrich, 2004): ~50% | block of BK channels (BK channels [2]; internal TBA, "our previous study", ref Li and Aldrich, 2004): fast block of BK channels at submillimolar concentrations | time dependence of block of BK currents (BK channels [2]; ref Li and Aldrich, 2004): without apparent time dependence | sensitivity of S6/2-KcsA channels to TBA ([4]; voltage ramp −80 to 200 mV, 0.3 and 10 mM TBA): sensitive to millimolar concentrations of TBA | block of single S6/2-KcsA channels vs wild-type BK ([6]; 0.4 mM TBA): kinetically very similar

Molecule: CCCC[N+](CCCC)(CCCC)Cc1ccc(C(=O)c2ccccc2)cc1 [bbTBA]
access of blocker to BK channels (BK channels [2]; ref Wilkens and Aldrich, 2006): may not be restricted by a cytoplasmic gate

Molecule: MAAVAGLYGLGEDRQHRKKQ [ShBP]
type of block events in other K+ channels [12]: only long block events | block of E321N, E324N currents by ShBP ([3]; 100 μM ShBP, 120 mV (unpublished data), roughly estimated): ~20% | decrease in apparent affinity of ShBP by the double mutation ([3]; 120 mV): ~10 fold | dissociation rate, Shaker channels (Shaker channels): ~10 s⁻¹ | block of Shaker compared with BK currents [13]: slower block and higher apparent affinity | time constant of block, τfast (double exponential fit) ([7]; 30 μM ShBP, macroscopic): 2.0 ms | time constant of block, τslow (double exponential fit) ([7]; 30 μM ShBP, macroscopic): 13.1 ms | block of wild-type BK currents by ShBP ([7]; 100 μM ShBP, 120 mV): ~70% | time constant of block, τfast (double exponential fit) ([7]; 100 μM ShBP, macroscopic): 0.7 ms | time constant of block, τslow (double exponential fit) ([7]; 100 μM ShBP, macroscopic): 5.2 ms | type of block events in BK channels ([7]; native ShBP): mainly short block events | character of block events ([7]; when about half of the currents are blocked, macroscopic): the majority of the block events are short lived | time constant of block, faster of two components [7, 16]: ~2 ms | time constant of block, slower of two components [7, 16]: ~10 ms | lifetime of short block events, single BK channels (BK channels [9]; dominating, ref Foster et al., 1992, Toro et al., 1992, 1994): a few milliseconds | lifetime of long block events, single BK channels (BK channels [9]; rare, ref Foster et al., 1992, Toro et al., 1992, 1994): hundreds of milliseconds | dissociation rate for the short block of BK channels (BK channels [9]; ref Foster et al., 1992, Toro et al.): ~100 s⁻¹
